Measurements reported in patent EP4748837A1, “AROMATIC AMIDE DERIVATIVE, AND PREPARATION METHOD THEREFOR AND USE THEREOF” (Zhejiang Hisun Pharmaceutical Co., Ltd., priority 2023, dated 2025).

Key:
OVCAR-3 cells = experiment: Inhibition of OVCAR-3 cell proliferation (CellTiter-Glo cell viability); assay type: cell-based; settings: Homo sapiens; OVCAR-3 cells (TP53 R248Q mutation), 72 hours culture with compound; read-out: IC50
Protocol: (§1) Influences of the compounds of the present invention on OVCAR-3 cell proliferation were determined by the following method. OVCAR-3 cells (containing TP53 R248Q mutation) were purchased from the Cell Bank of Shanghai Institute of Biochemistry and Cell Biology, Chinese Academy of Sciences, and cultured in an RPMI 1640 culture medium containing 10% fetal bovine serum, 100 U penicillin and 100 µg/mL streptomycin. A cell viability was determined by a CellTiter-Glo® Luminescent Cell Viability Assay kit (Promega, article number G7573).
(§2) An experimental method was operated according to steps in the instruction of the kit, which was briefly described as follows: a test compound was dissolved in DMSO first to prepare a 10 mM stock solution, then the stock solution was diluted with the culture medium to prepare a test sample, and a final concentration of the compound was in a range of 1000 nM-0.015 nM. Cells in a logarithmic growth phase were inoculated into a 96-well cell culture plate at a density of 1000 cells per well, cultured in a 5% CO2 incubator at 37°C overnight, and then the test compound was added to continuously culture for 72 hours. After the culture was ended, 50 uL of CellTiter-Glo detection solution was added to each well , shaken for 5 minutes, and then allowed to stand for 10 minutes, and subsequently, a luminance value of each well of the sample was read by a microplate reader in a Luminescence mode. By comparing with the numerical value of a control group (0.3% DMSO), a percentage inhibition rate of the compound at each concentration point was calculated, and then nonlinear regression analysis was carried out based on concentration logarithm-inhibition rate of the compound in GraphPad Prism 5 software, so as to obtain an IC50 value of the compound for inhibiting the cell proliferation, which was as shown in Table 1. Table 1 IC50 data of the compounds of the present invention for inhibiting OVCAR-3 cell proliferation

HT-29 cells = experiment: Inhibition of HT-29 cell proliferation (CellTiter-Glo cell viability); assay type: cell-based; settings: Homo sapiens; HT-29 cells (TP53 R273H mutation), 120 hours culture with compound; read-out: IC50
Protocol: as §1, with “HT-29” for “OVCAR-3”, “R273H” for “R248Q”, “a McCOY's 5A” for “an RPMI 1640”
as §2, with “for 120” for “for 72”, “each well,” for “each well ,”, “Table 2.” for “Table 1.”, “Table 2” for “Table 1”, “inhibiting HT-29” for “inhibiting OVCAR-3”

| SMILES | IC50 (OVCAR-3 cells) [nM] | IC50 (HT-29 cells) [nM] |
| --- | --- | --- |
| CCS(=O)(=O)Nc1ccc(C(=O)Nc2ccc(-c3ncco3)c(N3CCC(F)(F)CC3)c2)c(N2CCC3(CC2)CC3)c1 [Example 7, N-(3-(4,4-difluoropiperidin-1-yl)-4-(oxazol-2-yl)phenyl)-4-(ethylsulfonamido)-2-(6-azaspiro[2.5]octan-6-yl)benzamide] | 11.1 | 18.3 |
| CCS(=O)(=O)Nc1ccc(C(=O)Nc2ccc(-c3ccncc3)c(N3CCC(F)(F)CC3)c2)c(N2CCC3(CC2)CC3)c1 [Example 8, N-(3-(4,4-difluoropiperidin-1-yl)-4-(pyridin-4-yl)phenyl)-4-(ethylsulfonamido)-2-(6-azaspiro[2.5]octan-6-yl)benzamide] | 21.2 | – |
| CCS(=O)(=O)Nc1ccc(C(=O)Nc2ccc(-c3cccnc3)c(N3CCC(F)(F)CC3)c2)c(N2CCC3(CC2)CC3)c1 [Example 9, N-(3-(4,4-difluoropiperidin-1-yl)-4-(pyridin-3-yl)phenyl)-4-(ethylsulfonamido)-2-(6-azaspiro[2.5]octan-6-yl)benzamide] | 15.2 | 14.5 |
| CCS(=O)(=O)Nc1ccc(C(=O)Nc2ccc(-c3ccccn3)c(N3CCC(F)(F)CC3)c2)c(N2CCC3(CC2)CC3)c1 [Example 10, N-(3-(4,4-difluoropiperidin-1-yl)-4-(pyridin-2-yl)phenyl)-4-(ethylsulfonamido)-2-(6-azaspiro[2.5]octan-6-yl)benzamide] | 17.3 | 27.1 |
| CCS(=O)(=O)Nc1ccc(C(=O)Nc2ccc(-c3cnccn3)c(N3CCC(F)(F)CC3)c2)c(N2CCC3(CC2)CC3)c1 [Example 11, N-(3-(4,4-difluoropiperidin-1-yl)-4-(pyrazin-2-yl)phenyl)-4-(ethylsulfonamido)-2-(6-azaspiro[2.5]octan-6-yl)benzamide] | 17.7 | 16.3 |
| CCS(=O)(=O)Nc1ccc(C(=O)Nc2ccc(-n3ccnc3)c(C3=CCC(F)(F)CC3)c2)c(N2CCC3(CC2)CC3)c1 [Example 22, N-(4',4'-difluoro-6-(1H-imidazol-1-yl)-2',3',4',5'-tetrahydro-[1,1'-biphenyl]-3-yl)-4-(ethylsulfonamido)-2-(6-azaspiro[2. 5]octan-6-yl)benzamide] | 19.9 | 16.8 |
| CCS(=O)(=O)Nc1ccc(C(=O)Nc2ccc(-c3ncco3)c(OC3CC(F)(F)C3)c2)c(N2CCC3(CC2)CC3)c1 [Example 23, N-(3-(3,3-difluorocyclobutoxy)-4-(oxazol-2-yl)phenyl)-4-(ethylsulfonamido)-2-(6-azaspiro [2.5]octan-6-yl)benzamide] | 51.3 | – |
| CCS(=O)(=O)Nc1ccc(C(=O)Nc2ccc(-n3ccnc3)c(OC3CC(F)(F)C3)c2)c(N2CCC3(CC2)CC3)c1 [Example 24, N-(3-(3,3-difluorocyclobutoxy)-4-(1H-imidazol-1-yl)phenyl) -4-(ethylsulfonamido)-2-(6-azaspiro[2.5]octan-6-yl)benzamide] | 17.6 | – |
| O=C(Nc1ccc(-n2ccnn2)c(N2CCC(F)(F)CC2)c1)c1ccc(NS(=O)(=O)C2CC2)cc1N1CCC2(CC1)CC2 [Example 32, 4-(cyclopropanesulfonamido)-N-(3-(4,4-difluoropiperidin-1-yl)-4-(1H-1,2,3-triazol-1-yl)phenyl)-2-(6-azaspiro[2.5]octan-6-yl)benzamide] | 5.9 | 4.7 |
| CCS(=O)(=O)Nc1ccc(C(=O)Nc2ccc(-c3nnn(C)n3)c(N3CCC(F)(F)CC3)c2)c(N2CCC3(CC2)CC3)c1 [Example 35, N-(3-(4,4-difluoropiperidin-1-yl)-4-(2-methyl-2H-tetrazol-5-yl)phenyl)-4-(ethylsulfonamido)-2-(6-azaspiro[2.5]octan-6-y 1)benzamide] | 11.1 | 6.2 |
| CCS(=O)(=O)Nc1ccc(C(=O)Nc2ccc(-c3ccon3)c(N3CCC(F)(F)CC3)c2)c(N2CCC3(CC2)CC3)c1 [Example 36, N-(3-(4,4-difluoropiperidin-1-yl)-4-(isoxazol-3-yl)phenyl)-4-(ethylsulfonamido)-2-(6-azaspiro[2.5]octan-6-yl)benzamide] | 11.1 | 9.3 |
| CCS(=O)(=O)Nc1ccc(C(=O)Nc2ccc(-c3ncnn3C)c(N3CCC(F)(F)CC3)c2)c(N2CCC3(CC2)CC3)c1 [Example 38, N-(3-(4,4-difluoropiperidin-1-yl)-4-(1-methyl-1H-1,2,4-triazol-5-yl)phenyl)-4-(ethylsulfon amido)-2-(6-azaspiro[2.5]octan-6-yl)benzamide] | 27.1 | – |
| CCS(=O)(=O)Nc1ccc(C(=O)Nc2ccc(-c3nnco3)c(N3CCC(F)(F)CC3)c2)c(N2CCC3(CC2)CC3)c1 [Example 40, N-(3-(4,4-difluoropiperidin-1-yl)-4-(1,3,4-oxadiazol-2-yl)phenyl)-4-(ethylsulfonamido)-2-(6-azaspiro[2.5]octan-6-yl)benz amide] | 6 | 8.2 |
| CCS(=O)(=O)Nc1ccc(C(=O)Nc2ccc(-c3ncn(C)n3)c(NC3CC(F)(F)C3)c2)c(N2CCC3(CC2)CC3)c1 [Example 54, N-(3-((3,3-difluorocyclobutyl)amino)-4-(1-methyl-1H-1,2,4-triazol-3-yl)phenyl)-4-(ethylsulfonamido)-2-(6-azaspiro[2.5]octan-6-yl)benzamide] | 38.9 | – |

Now from value to compound:

| IC50 (OVCAR-3 cells) [nM] | IC50 (HT-29 cells) [nM] | SMILES |
| --- | --- | --- |
| 16.5 | 10.2 | CCS(=O)(=O)Nc1ccc(C(=O)Nc2ccc(C(N)=O)c(N3CCC(F)(F)CC3)c2)c(N2CCC3(CC2)CC3)c1 [Example 1, N-(4-carbamoyl-3-(4,4-difluor opiperidin-1-yl)phenyl)-4-(ethylsulfonamido)-2-(6-azaspiro[2.5]octan-6-yl)benzamide] |
| 3.7 | 4 | CCS(=O)(=O)Nc1ccc(C(=O)Nc2ccc(C(=O)NC)c(N3CCC(F)(F)CC3)c2)c(N2CCC3(CC2)CC3)c1 [Example 3, 2-(4,4-difluoropiperidin-1-yl)-4-(4-(ethylsulfonamido)-2-(6-azaspiro[2.5]octan-6-yl)benzamido)-N-methylbenzamide] |
| 18.9 | – | CCS(=O)(=O)Nc1ccc(C(=O)Nc2ccc(C(=O)N(C)C)c(N3CCC(F)(F)CC3)c2)c(N2CCC3(CC2)CC3)c1 [Example 4, 2-(4,4-difluoropiperidin-1-yl)-4-(4-(ethylsulfonamido)-2-(6-azaspiro[2.5]octan-6-yl)benzamido)-N,N-dimethylbenzamide] |
| 33.1 | – | CCS(=O)(=O)Nc1ccc(C(=O)Nc2ccc(C(C)=O)c(N3CCC(F)(F)CC3)c2)c(N2CCC3(CC2)CC3)c1 [Example 5, N-(4-acetyl-3-(4,4-difluoropiperidin-1-yl)phenyl)-4-(ethylsulfonamido)-2-(6-azaspiro[2.5]octan-6-yl)benzamide] |
| 11.1 | 13.3 | CCS(=O)(=O)Nc1ccc(C(=O)Nc2ccc(CO)c(N3CCC(F)(F)CC3)c2)c(N2CCC3(CC2)CC3)c1 [Example 6, N-(3-(4,4-difluoropiperidin-1-yl)-4-(hydroxymethyl)phenyl)-4-(ethylsulfonamido)-2-(6-azaspiro[2.5]octan-6-yl)benzamide] |
| 44.7 | – | CCS(=O)(=O)Nc1ccc(C(=O)Nc2ccc(Oc3ccccn3)c(N3CCC(F)(F)CC3)c2)c(N2CCC3(CC2)CC3)c1 [Example 55, N-(3-(4,4-difluoropiperidin-1-yl)-4-(pyridin-2-yloxy)phenyl) -4-(ethylsulfonamido)-2-(6-azaspiro[2.5]octan-6-yl)benzamide] |
| 8.7 | 4.5 | [2H]C([2H])([2H])Oc1ccc(NC(=O)c2ccc(NS(=O)(=O)CC)cc2N2CCC3(CC2)CC3)cc1N1CCC(F)(F)CC1 [Example 57, N-(3-(4,4-difluoropiperidin-1-yl)-4-(methoxy-d3)phenyl)-4-(ethylsulfonamido)-2-(6-azaspiro[2.5]octan-6-yl)benzamide] |
